The test is described as follows: Fluorescent hydrogel phase glucose responsive assay (10 mM PBS, pH 7.4, 310 K). To be noted: 20 mM D-glucose, GBM2 10 uM, FIM 1 uM. The method, then: The fluorescence spectrum of the corresponding hydrogel, already swollen in 200 μL of 10 mM PBS, in a well plate was recorded by exciting at the designated excitation frequency and monitoring at the typical emission maximum (Emmax). The PBS top solution was removed either by micropipette or by decanting onto an absorbent material. A 200 μL solution of D-glucose (in 10 mM PBS) at the required concentration was added to each hydrogel in the well plate and the system allowed to reach equilibrium. The emission spectra for each well were collected after this and compared to the original baseline emission, monitoring at the typical emission maximum (Emmax), and the percentage increase or decrease recorded. The change in emission was recorded for each hydrogel in the well plate (up to 96 individual hydrogel sensors) or an average of all wells was used. The hydrogel bound assays were then investigated for reproducibility by cycling with solutions of PBS or D-glucose. This was achieved by removal of the previous top solution (e.g. D-glucose) by micropipette or decanting onto an absorbent material and replacing with another solution (e.g. 10 mM PBS). […] Emission spectra acquired using a Clariostar plus plate reader.
(§1) Hydroxyethylmethacrylate (2.85 g), TEGDMA (0.15 g), VAZO-44 (0.12 mg), ethylene glycol (1.06 g) and water (1.33 g) were added to a glass vial and vortexed/sonicated until a homogeneous solution. Concentrated aliquots (<50 μL) of the appropriate GBM and FIM from pre-made stock solutions were added to give the required final concentrations of GBM and FIM (i.e. 50 μL of GBM stock solution at 1 mM gives a final GBM concentration of 10 μM in the pre-gel solution). A 50 μL aliquot of this GBM and FIM containing pre-gel solution was pipetted into each well of a transparent flat-bottomed polystyrene 96 well plate. 100 μL of n-butanol was layered on top of the pre-gel solution in each well plate and each well plate covered with a loose transparent well plate lid. The well plate was then placed in a nitrogen flushed desiccator, which was then placed into a pre-heated oven at 45° C. for 4 hours. The well plates were then removed from the oven, allowed to cool to RT and the top solution removed by decanting onto an absorbent material. The hydrogels were then washed and swelled by submerging in one litre of pure water or 10 mM PBS for 24 hours. Each well within the well plate containing hydrogel bound assay was then washed with D-glucose (50 mM) and then 10 mM PBS multiple times until the observed fluorescence emission stabilised to give a baseline emission value in 10 mM PBS. These hydrogels were then used for determining assay performance and reversibility studies.
as §1, with “(1.95” for “(2.85”, “PEGDA (0.57” for “TEGDMA (0.15”, “(0.04” for “(0.12”, “200 mM methyl-p-D-glucopyranoside (aqueous, 1.39” for “water (1.33”, “FIM.” for “FIM (i.e. 50 μL of GBM stock solution at 1 mM gives a final GBM concentration of 10 μM in the pre-gel solution).”, “hours.” for “hours. Each well within the well plate containing hydrogel bound assay was then washed with D-glucose (50 mM) and then 10 mM PBS multiple times until the observed fluorescence emission stabilised to give a baseline emission value in 10 mM PBS. These hydrogels were then used for determining assay performance and reversibility studies.”

Setting [1] is: Ex 470/Emmax 530 nm, hydrogel A (HEMA/TEGDMA).
Setting [2] is: Ex 470/Emmax 530 nm, hydrogel C (polyacrylamide/bis-acrylamide).

Molecules are shown by their SMILES.

The text below walks through data of patent publication US20250172566A1, “SACCHARIDE SENSING SYSTEMS” (CARBOMETRICS LIMITED, priority 2022, published 2025).

In the case of `C=CC(=O)NCCOCCOCCOCCOCCOCCOCCC(=O)NCCCC[C@@H](C(=O)Nc1ccc(CCO[C@@H]2O[C@H](CO)[C@@H](O)[C@H](O)[C@H]2O)cc1)n1cc(CNC(=O)c2ccc(C(=O)O)c(-c3c4cc(C)c(=NCC)cc-4oc4cc(NCC)c(C)cc34)c2)nn1` [FIM16], the “Change in Emmax for FIM at a particular D-glucose concentration” value (“Change in Emmax for FIM” for short) (Ex 515/Emmax 550 nm, hydrogel A (HEMA/TEGDMA)) is recorded as 45% and the “Change in Emmax for FIM” value (Ex 515/Emmax 550 nm, hydrogel C (polyacrylamide/bis-acrylamide)) amounted to 50%.
On to `C=CC(=O)NC(Cc1cn(CCOCCOc2ccc(CCO[C@@H]3O[C@H](CO)[C@@H](O)[C@H](O)[C@H]3O)cc2)nn1)C(=O)Nc1ccc2c(c1)C(=O)OC21c2ccc(O)cc2Oc2cc(O)ccc21` (stereo partly drawn) [FIM21], for which the “Change in Emmax for FIM” value under setting [1] worked out at 0%.
In the case of `C=CC(=O)NCCCC[C@@H](C(=O)Nc1ccc2c(c1)C(=O)OC21c2ccc(O)cc2Oc2cc(O)ccc21)n1cc(-c2ccc(CCO[C@@H]3O[C@H](CO)[C@@H](O)[C@H](O)[C@H]3O)cc2)nn1` [FIM22], the “Change in Emmax for FIM” value runs as follows: under setting [1], 10%; under setting [2], 15%.
For the molecule `C=CC(=O)NCCOCCOCCOCCOCCOCCOCCC(=O)NCCCC[C@@H](C(=O)Nc1ccc(CCO[C@@H]2O[C@H](CO)[C@@H](O)[C@H](O)[C@H]2O)cc1)n1cc(CNC(=O)c2ccc3c(c2)C(=O)OC32c3ccc(O)cc3Oc3cc(O)ccc32)nn1` [FIM23], the “Change in Emmax for FIM” value is, setting by setting: under setting [1], 10%; under setting [2], 15%.
Consider `C=CC(=O)NCCOCCOCCOCCOCCOCCOCCC(=O)NCCCC[C@@H](C(=O)Nc1ccc2c(c1)C(=O)OC21c2ccc(O)cc2Oc2cc(O)ccc21)n1cc(-c2ccc(CCO[C@@H]3O[C@H](CO)[C@@H](O)[C@H](O)[C@H]3O)cc2)nn1` [FIM24], for which the “Change in Emmax for FIM” value under setting [1] came out at 8%.
On to `C=CC(=O)NCCOCCOCCOCCOCCOCCOCCC(=O)NCCCC[C@@H](C(=O)Nc1ccc2c(c1)C(=O)OC21c2ccc(O)cc2Oc2cc(O)ccc21)n1cc(-c2ccc(CCO[C@@H]3O[C@H](C(=O)O)[C@@H](O)[C@H](O)[C@H]3O)cc2)nn1` [FIM25], for which the “Change in Emmax for FIM” value under setting [1] stood at 12%.
